Calls of active or inactive are those of the source. The calls are words filed in the database; no cut-off is given here.
What was measured:
Type in all cases: cell-based
[1] = target: T1, Nuclear factor erythroid 2-related factor 2 (Mus musculus) (UniProt Q60795); assay: Activation of NRF2 in mouse MLE12 cells assessed as increase in NRF2 level at 10 uM incubated for 6 hrs by immunoblot assay
T1 sequence (whole entry): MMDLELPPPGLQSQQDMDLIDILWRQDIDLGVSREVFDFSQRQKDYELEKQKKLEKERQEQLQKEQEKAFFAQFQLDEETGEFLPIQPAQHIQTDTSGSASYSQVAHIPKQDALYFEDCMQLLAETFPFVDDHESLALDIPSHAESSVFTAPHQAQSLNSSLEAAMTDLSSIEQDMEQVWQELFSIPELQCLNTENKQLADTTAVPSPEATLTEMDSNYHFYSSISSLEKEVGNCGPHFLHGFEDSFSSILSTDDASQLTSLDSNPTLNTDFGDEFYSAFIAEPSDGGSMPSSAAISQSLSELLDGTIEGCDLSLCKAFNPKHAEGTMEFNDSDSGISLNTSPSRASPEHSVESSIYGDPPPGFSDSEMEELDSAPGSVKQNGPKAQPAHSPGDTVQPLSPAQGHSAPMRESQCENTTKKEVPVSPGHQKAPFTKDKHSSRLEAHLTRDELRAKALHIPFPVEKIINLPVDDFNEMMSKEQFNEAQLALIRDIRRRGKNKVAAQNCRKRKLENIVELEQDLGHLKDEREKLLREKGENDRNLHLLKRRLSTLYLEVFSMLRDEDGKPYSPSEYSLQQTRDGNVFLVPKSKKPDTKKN

[2] = target: T1, Nuclear factor erythroid 2-related factor 2 (Mus musculus); assay: Activation of NRF2 in mouse MLE12 cells assessed as induction of HMOX1 expression at 10 uM incubated for 6 hrs by immunoblot assay
[3] = target: T1, Nuclear factor erythroid 2-related factor 2 (Mus musculus); assay: Activation of NRF2 in mouse MLE12 cells assessed as induction of NQO1 expression at 10 uM incubated for 6 hrs by immunoblot assay

Activity [1]	Activity [2]	Activity [3]	SMILES
Active	Active	–	COc1ccc(S(=O)(=O)N(CC(=O)O)c2ccc(N(CC(=O)O)S(=O)(=O)c3ccc(OC)cc3)c3ccccc23)cc1
Active	Active	–	CCOC(=O)CN(c1ccc(NS(=O)(=O)c2ccc(OC)cc2)c2ccccc12)S(=O)(=O)c1ccc(OC)cc1
–	inactive	inactive	COc1ccc(S(=O)(=O)Nc2ccc(N(CC(=O)O)S(=O)(=O)c3ccc(OC)cc3)c3ccccc23)cc1
Active	Active	–	COc1ccc(S(=O)(=O)Nc2ccc(NS(=O)(=O)c3ccc(OC)cc3)c3ccccc23)cc1

Source: ChEMBL document CHEMBL3632561, “Probing the structural requirements of non-electrophilic naphthalene-based Nrf2 activators” (Eur J Med Chem, 2015)
